Measurements: patent publication US11613533B2, “Compounds useful for inhibiting RET kinase” (Eli Lilly and Company, priority 2020, dated 2023)

Assays:
[1] = target: T1, wildtype RET kinase (N-terminal GST tagged recombinant human RET cytoplasmic domain, aa 658-end) (Homo sapiens, UniProt P07949); assay: RET enzyme assay (HTRF KinEASE TK), wildtype; assay type: biochemical; conditions: 1 mM ATP, 60 min incubation at 22° C.
T1 construct: human RET cytoplasmic domain (aa 658-end); GST (N); purchased Eurofins 14-570M
T1 sequence (P07949 658-1114 limits assumed): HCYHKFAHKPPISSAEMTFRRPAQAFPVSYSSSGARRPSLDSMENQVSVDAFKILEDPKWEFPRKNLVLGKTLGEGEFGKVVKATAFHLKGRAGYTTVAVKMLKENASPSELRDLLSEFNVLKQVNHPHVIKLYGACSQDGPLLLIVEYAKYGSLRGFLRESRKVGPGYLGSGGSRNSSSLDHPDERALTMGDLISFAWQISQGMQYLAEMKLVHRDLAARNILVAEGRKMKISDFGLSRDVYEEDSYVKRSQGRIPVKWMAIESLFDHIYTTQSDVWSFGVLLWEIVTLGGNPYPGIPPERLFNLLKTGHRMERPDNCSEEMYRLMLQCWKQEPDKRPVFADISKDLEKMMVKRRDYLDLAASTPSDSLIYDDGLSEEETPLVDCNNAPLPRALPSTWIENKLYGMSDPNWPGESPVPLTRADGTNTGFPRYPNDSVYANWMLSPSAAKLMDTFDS
Protocol: Assay A: RET Enzyme Assay
Compounds of formulas I, II, or III are screened for their ability to inhibit wildtype, V804M, and G810S mutant RET kinase using CisBio's HTRF® KinEASE™TK assay technology. N-terminal GST tagged recombinant human RET cytoplasmic domain (aa 658-end) from Eurofins ([…]; Catalog No. 14-570M) or N-terminal GST tagged recombinant human V804M mutant RET cytoplasmic domain (aa 658-end) from Millipore (1.25 nM enzyme; Catalog No. 14-760) or N-Terminal GST-tagged recombinant human G810S (aa-658-end) (1.25 nM Enzyme; produced in insect cells) is incubated with 62.5 nM TK-substrate biotin (CisBio, part of Catalog No. 62TK0PEC) and 1 mM ATP along with test compound (0.4% final DMSO in the assay) in a 1× Cisbio enzymatic buffer consisting of […], 5 mM MgCl2, 0.04% BSA and 0.05% Tween20 in a volume of 10 μL. Compounds are typically prepared in a threefold serial dilution in DMSO and added to the assay to give the appropriate final concentration. After a 40-60 min (40 min for V804M, 60 min for WT and G810S) incubation at 22° C., the reaction is quenched by adding quench solution (10 μL) containing 7.8 nM Streptavidine-XL665 and 0.5×TK-ab-Cryptate in HTRF detection buffer (all from CisBio, part of Cat. No. 62TK0PEC). After a 60-80 min incubation (60 minutes for WT, 80 minutes for V804M and G810S) at 22° C., the extent of reaction is determined using a PHERastar plate reader via HTRF detection at excitation/emission 337/665 nm. Percent of inhibition is calculated with 0% inhibition referring to control conditions containing no compound (0.4% DMSO only) and 100% inhibition represented by conditions containing no enzyme. The % inhibition values are fit to a 4 parameter logistic curve, and the determined IC50 value is defined as the estimated concentration of inhibitor at the inflexion point of the fitted curve.

[2] = target: T2, KIF5B-RET WT in HEK293 cells (Homo sapiens, UniProt P07949); assay: RET cell assay (In-Cell Western, phospho-RET Y1062), wildtype; assay type: cell-based; conditions: HEK293, doxycycline-induced KIF5B-RET WT, 1 hr compound treatment; read-out: EC50, inhibition of intracellular autophosphorylation of RET at tyrosine 1062, wildtype cells
T2 construct: expressed in transfected cells; host or cells: HEK293; the other entry of the earlier key: KIF5B (P33176, Kinesin-1 heavy chain)
T2 sequence (P07949 713-1063 limits assumed): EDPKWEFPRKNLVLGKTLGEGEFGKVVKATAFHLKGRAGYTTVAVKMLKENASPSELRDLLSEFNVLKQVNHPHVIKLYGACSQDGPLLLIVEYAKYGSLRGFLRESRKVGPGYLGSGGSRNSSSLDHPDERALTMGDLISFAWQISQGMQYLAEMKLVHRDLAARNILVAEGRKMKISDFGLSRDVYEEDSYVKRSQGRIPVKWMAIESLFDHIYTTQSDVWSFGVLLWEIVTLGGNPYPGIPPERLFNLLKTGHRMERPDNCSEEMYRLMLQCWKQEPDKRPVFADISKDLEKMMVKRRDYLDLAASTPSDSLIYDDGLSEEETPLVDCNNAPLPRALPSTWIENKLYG
Protocol: Compounds of formulas (I), (II), and (III) are screened for their ability to inhibit the intracellular autophosphorylation of RET at tyrosine 1062 as detected by In-Cell Western. HEK293 cells containing a doxycycline-inducible plasmid for inducible expression of KIF5B-RET WT and RET mutant forms V804M and G810S are seeded at 25,000 cells/well into black poly-D-lysine pre-coated 384-well plates (Corning, Catalog No. 356697). Expression of KIF5B-RET is induced with doxycycline at 1 μg/mL and cells are incubated at 37° C. overnight. Compounds are prepared in a threefold serial dilution in DMSO before further diluting 1:100 in media prior to the addition to the cells (0.1% final DMSO concentration). Compound treatment is performed for 1 hr at 37° C. followed by fixation of cells with 4% formaldehyde for 20 min at RT and cell permeabilisation with ice-cold MeOH for 10 min at RT. Cells are incubated with Intercept® blocking buffer (Li—COR, Catalogue No. 927-70010) for 1 hr at RT. Incubation with primary antibodies against human phospho-RET (Y1062) (R&D, Catalogue No. AF5009, 1/250 dilution) and human glyceraldehyde-3-phosphate dehydrogenase (clone 6C5, Merck, Catalog No. MAB374, 1/1000 dilution) are performed overnight at 4° C. Incubation with secondary antibodies IRDye® 800CW goat anti-rabbit IgG (Li—COR, Catalogue No. 926-32211, 1/1000 dilution) and IRDye® 680CW goat anti-mouse IgG (Li—COR, Catalogue No. 926-68070, 1/1000 dilution) are performed for 1 hr at RT. All antibody dilutions are done in Intercept® blocking buffer containing 0.05% Tween20. After washing cells with PBS-T (Cell Signaling technology, Catalogue No. 9809), the images are acquired on a Li—COR Odyssey LCx at 700 and 800 nm. Percent of DMSO control is calculated with 100% signal referring to control conditions containing no compound (0.4% DMSO only) and 0% signal represented by conditions containing control compound. The % of DMSO control values are fit to a 4 parameter logistic curve, and the determined EC50 value is defined as the estimated concentration of inhibitor at the inflexion point of the fitted curve.

CC(C(=O)Nc1cc(CC(C)(C)C)no1)c1ccc(-c2nn(C(C)C)c(N)c2C(N)=O)cc1 (single isomer, unassigned; isomer 1) [Example 1, 5-Amino-3-[4-(1-[[3-(2,2-dimethylpropyl)-1,2-oxazol-5-yl]carbamoyl]ethyl)phenyl]-1-isopropylpyrazole-4-carboxamide, Isomer 1]
IC50 [1]: < 100 nM | EC50 [2]: < 100 nM

CCC(C)(C)c1cc(NC(=O)C(C)c2ccc(-c3nn(C(C)C)c(N)c3C(N)=O)cc2)on1 (single isomer, unassigned; isomer 1) [Example 15, 5-Amino-1-isopropyl-3-[4-(1-[[3-(2-methylbutan-2-yl)-1,2-oxazol-5-yl]carbamoyl]ethyl)phenyl]pyrazole-4-carboxamide, Isomer 1]
IC50 [1]: < 100 nM | EC50 [2]: < 100 nM

CC(C(=O)Nc1cc(C(C)(C)C(F)(F)F)no1)c1ccc(-c2nn(C(C)C)c(N)c2C(N)=O)cc1 (single isomer, unassigned; isomer 1) [Example 17, 5-Amino-1-isopropyl-3-[4-(1-[[3-(1,1,1-trifluoro-2-methylpropan-2-yl)-1,2-oxazol-5-yl]carbamoyl]ethyl)phenyl]pyrazole-4-carboxamide, Isomer 1]
IC50 [1]: < 100 nM | EC50 [2]: < 100 nM

CC(C(=O)Nc1cc(C2(C)CC2)no1)c1ccc(-c2nn(C(C)C)c(N)c2C(N)=O)cc1 (single isomer, unassigned; isomer 1) [Example 35, 5-Amino-1-isopropyl-3-[4-(1-[[3-(1-methylcyclopropyl)-1,2-oxazol-5-yl]carbamoyl]ethyl)phenyl]pyrazole-4-carboxamide, Isomer 1]
IC50 [1]: < 100 nM | EC50 [2]: < 100 nM

CC(C(=O)Nc1cc(-c2ccc(Cl)cc2Cl)no1)c1ccc(-c2nn(C(C)C)c(N)c2C(N)=O)cc1 (single isomer, unassigned; isomer 1) [Example 45, 5-Amino-3-[4-(1-[[3-(2,4-dichlorophenyl)-1,2-oxazol-5-yl]carbamoyl]ethyl)phenyl]-1-isopropylpyrazole-4-carboxamide, Isomer 1]
IC50 [1]: < 100 nM | EC50 [2]: < 100 nM

CC(C(=O)Nc1cc(C(C)(C)C(F)(F)F)on1)c1ccc(-c2nn(C(C)C)c(N)c2C(N)=O)cc1 (single isomer, unassigned; isomer 1) [Example 81, 5-Amino-1-isopropyl-3-[4-(1-[[5-(1,1,1-trifluoro-2-methylpropan-2-yl)-1,2-oxazol-3-yl]carbamoyl]ethyl)phenyl]pyrazole-4-carboxamide, Isomer 1]
IC50 [1]: < 100 nM | EC50 [2]: < 100 nM

CC(C(=O)Nc1cc(C2CC(C)(C)C2)no1)c1ccc(-c2nn(C(C)C)c(N)c2C(N)=O)cc1 (single isomer, unassigned; isomer 1) [Example 98, 5-Amino-3-[4-[2-[[3-(3,3-dimethylcyclobutyl)isoxazol-5-yl]amino]-1-methyl-2-oxo-ethyl]phenyl]-1-isopropyl-pyrazole-4-carboxamide, Isomer 1]
IC50 [1]: < 100 nM | EC50 [2]: < 100 nM

CCC(C)(C)c1cc(NC(=O)C(C)c2ccc(-c3nn(C(C)C)c(N)c3C(N)=O)cc2)no1 (single isomer, unassigned; isomer 2) [Example 52, 5-Amino-1-isopropyl-3-[4-(1-[[5-(2-methylbutan-2-yl)-1,2-oxazol-3-yl]carbamoyl]ethyl)phenyl]pyrazole-4-carboxamide, Isomer 2]
IC50 [1]: < 100 nM | EC50 [2]: < 100 nM

CC(C(=O)Nc1cc(C(C)(C)C(F)(F)F)on1)c1ccc(-c2nn(C(C)C)c(N)c2C(N)=O)nc1 (single isomer, unassigned; isomer 2) [Example 64, 5-Amino-1-isopropyl-3-[5-(1-[[5-(1,1,1-trifluoro-yl)-1,2-oxazol-3-2-methylpropan-2-yl]carbamoyl]ethyl)pyridin-2-yl]pyrazole-4-carboxamide, Isomer 2]
IC50 [1]: < 100 nM | EC50 [2]: < 100 nM

CCC(C)(C)c1cc(NC(=O)C(C)c2ccc(-c3nn(C(C)C)c(N)c3C(N)=O)nc2)no1 (single isomer, unassigned; isomer 2) [Example 66, 5-Amino-1-isopropyl-3-[5-(1-[[5-(2-methylbutan-2-yl)-1,2-oxazol-3-yl]carbamoyl]ethyl)pyridin-2-yl]pyrazole-4-carboxamide, Isomer 2]
IC50 [1]: < 100 nM | EC50 [2]: < 100 nM

CC(C(=O)Nc1cc(C(C)(C)CC(F)(F)F)on1)c1ccc(-c2nn(C(C)C)c(N)c2C(N)=O)nc1 (single isomer, unassigned; isomer 2) [Example 68, 5-Amino-1-isopropyl-3-(5-(1-oxo-1-((5-(4,4,4-trifluoro-2-methylbutan-2-yl)isoxazol-3-yl)amino)propan-2-yl)pyridin-2-yl)-1H-pyrazole-4-carboxamide, Isomer 2]
IC50 [1]: < 100 nM | EC50 [2]: < 100 nM

CC(C(=O)Nc1cc(C(C)(C)C(C)(F)F)on1)c1ccc(-c2nn(C(C)C)c(N)c2C(N)=O)nc1 (single isomer, unassigned; isomer 2) [Example 70, 5-Amino-3-[5-(1-[[5-(3,3-difluoro-2-methylbutan-2-yl)-1,2-oxazol-3-yl]carbamoyl]ethyl)pyridin-2-yl]-1-isopropylpyrazole-4-carboxamide, Isomer 2]
IC50 [1]: < 100 nM | EC50 [2]: < 100 nM

CC(C(=O)Nc1cc(C(C)(C)C(C)(F)F)on1)c1ccc(-c2nn(C(C)C)c(N)c2C(N)=O)cc1 (single isomer, unassigned; isomer 2) [Example 76, 5-Amino-3-[4-(1-[[5-(3,3-difluoro-2-methylbutan-2-yl)-1,2-oxazol-3-yl]carbamoyl]ethyl)phenyl]-1-isopropylpyrazole-4-carboxamide, Isomer 2]
IC50 [1]: < 100 nM | EC50 [2]: < 100 nM
